From patent US20030181390A1, “Amino acid conjugates providing for sustained systemic concentrations of GABA analogues” (priority 2002, published 2003)
Read-outs that look alike come from different tables or passages of the source.

Key:
[1] = Caco-2 homogenate S9 stability / release of gabapentin; type: in vitro ADME; conditions: incubation with Caco-2 homogenate for 1 hour
Protocol: The stability of aminoacyl-gabapentin conjugates was evaluated by incubating the conjugates in the various tissue and enzyme-containing preparations listed in Table 1 below.
Tissue homogenates and plasma samples were obtained from commercial sources (Pel-Freez Biologicals, Rogers, Ariz., and GenTest Corporation, Woburn, Mass.). Stability of prodrugs toward the specific enzyme aminopeptidase was also evaluated by incubation with the purified enzyme. Experimental conditions used for the in vitro studies were as follows. Each preparation was incubated with test compound at 37° C. for one hour. Aliquots (50 μL) were removed at 0, 30, and 60 min and quenched with 0.1% trifluoroacetic acid in acetonitrile. Samples were then centrifuged and analyzed for the presence of prodrug and released gabapentin by LC/MS/MS as described below.
Concentrations of prodrug or gabapentin in tissue extracts were determined by direct injection onto an API 2000 LC/MS/MS equipped with an Agilent 1100 binary pump and autosampler. Separation was achieved using a 3.5 μm Zorbax Ellipse XDB-C8 4.4×150 mm column heated to 45° C. during the analysis. The mobile phases were: 0.1% formic acid in water (A) and 0.1% formic acid in acetonitrile (B). The gradient condition was: 2% B for 0.5 min, increasing to 90% B in 2.0 min, maintained for 2.5 min and returning to 2% B for 2 min. A TurboIonSpray source was used on the API 2000. The analysis was performed in the positive ion mode and MRM transitions of 172.0/137.2 were used in the analysis of gabapentin (2). Ten microliters of the sample extracts were injected. Peaks were integrated using Analyst quantitation software. The method was linear for (2) over the concentration range 0.002 to 2.5 μg/mL respectively.
The stability of gabapentin-containing prodrugs to Caco-2 homogenates was evaluated as follows:
Caco-2 Homogenate S9 Stability: Caco-2 cells were grown for 21 days prior to harvesting. Culture medium was removed and cell monolayers were rinsed and scraped off into ice-cold 10 mM sodium phosphate/0.15 M potassium chloride, pH 7.4. Cells were lysed by sonication at 4° C. using a probe sonicator. Lysed cells were then transferred into 1.5 mL centrifuge vials and centrifuged at 9000 g for 20 min at 4° C. The resulting supernatant (Caco-2 cell homogenate S9 fraction) was aliquoted into 0.5 mL vials and stored at −80° C. until used.
For stability studies, prodrug (5 μM) was incubated in Caco-2 homogenate S9 fraction (0.5 mg protein per mL) for 60 min at 37° C. Concentrations of intact prodrug and released drug were determined at zero time and 60 minutes using LC/MS/MS.

[2] = in vivo; conditions: rat; for Cmax for prodrug (Cmax PD) in plasma: single oral dose of prodrug, 25 mg-equivalents of gabapentin per kg
Protocol: The pharmacokinetics of the prodrugs prepared in Examples 1 and 3 were examined in rats. […] Animals were fasted overnight prior to dosing and until 4 hours post-dosing. Serial blood samples were obtained over 24 hours following dosing and blood was processed for plasma by centrifugation. Plasma samples were stored at −80° C. until analyzed.
Plasma (50 μL) was precipitated by addition of […] of methanol and supernatant was injected directly onto the LC/MS/MS system. […] Following oral administration of gabapentin prodrugs, concentrations of prodrug and gabapentin in plasma were monitored over 24 hours.

[3] = monkey, sodium salt in water, 10 mg-equivalents of gabapentin per kg
[4] = rat, intracolonic, sodium salt, dose equivalent to 25 mg of gabapentin per kg
Protocol: Rats were obtained commercially and were pre-cannulated in the both the ascending colon and the jugular vein. Animals were conscious at the time of the experiment. All animals were fasted overnight and until 4 hours post-dosing. […] Blood samples (0.5 mL) were obtained from the jugular cannula at intervals over 8 hours and were quenched immediately by addition of acetonitrile/methanol to prevent further conversion of the prodrug.

[5] = rat; for fraction of prodrug absorbed intact following oral administration: oral and i.v. dosing of prodrug
[6] = test system: PEPT1; conditions: tested at 1 mM on oocytes expressing PEPT1; normalised to 1 mM glycyl-sarcosine
Protocol: (§1) Rat and human PEPT1 and PEPT2 expressing CHO cell lines were prepared as described in PCT Application WO01/20331. Gabapentin-containing dipeptides were evaluated for interaction with the peptide transporters using a radiolabeled substrate uptake assay in a competitive inhibition format, as described in PCT Application WO01/20331. Transport-induced currents were also measured in Xenopus oocytes transfected with rat and human PEPT1 and PEPT2.
(§2) (b) Analysis of Electrogenic Transport in Xenopus oocytes
(§3) RNA preparation: Rat and human PEPT1 and PEPT2 transporter cDNAs were subcloned into a modified pGEM plasmid that contains 5′ and 3′ untranslated sequences from the Xenopus β-actin gene. These sequences increase RNA stability and protein expression. Plasmid cDNA was linearized and used as template for in vitro transcription (Epicentre Technologies transcription kit, 4:1 methylated:non-methylated GTP).
(§4) Xenopus oocyte isolation. Xenopus laevis frogs were anesthetized by immersion in Tricaine ([…] in deionized water) for 15 min. […]
(§5) Electrophysiology measurements. Transport currents were measured 2-14 days after injection, using a standard two-electrode electrophysiology set-up (Geneclamp 500 amplifier, Digidata 1320/PCLAMP software and ADInstruments hardware and software were used for signal acquisition).

[7] = test system: PEPT2; conditions: tested at 1 mM on oocytes expressing PEPT2; normalised to 1 mM glycyl-sarcosine
Protocol: as §1, §2, §3, §4, §5

[8] = monkey; for increase in gabapentin exposure (as measured by AUC) for a 7.5-fold increase in dose / AUC for gabapentin (AUC G) / Cmax for gabapentin (Cmax G): oral; for increase in gabapentin exposure (as measured by AUC) for a 7.5-fold increase in dose: 10 to 75 mg-eq/kg
Protocol: (§6) The prodrug was administered orally to four adult male monkeys (approximate body weight of 6.5 kg) via an oral nasogastric tubeas solutions in water or PEG 400. The dose was 10 or 75 mg-equivalents of gabapentin per kg body weight. Animals were fasted overnight before the study and for 4 hours post-dosing. Blood samples (1.0 mL) were obtained via femoral or cephalic venipuncture at intervals over 48 hours after oral dosing. Blood was processed immediately for plasma and plasma was frozen at −80° C. until analyzed. […] Oral bioavailability was determined by comparison of area under the gabapentin concentration versus time curve (AUC) following oral administration of prodrug or intravenous administration of an equimolar dose of gabapentin hydrochloride.

[9] = in vivo; conditions: male, monkey, plasma, po
Protocol: as §6

[10] = man, cited from earlier work
[11] = male, Sprague-Dawley, plasma, po, 25 mg/kg

N[C@@H](Cc1ccc(Br)cc1)C(=O)NCC1(CC(=O)O)CCCCC1 [1ah, L-4-Bromophenylalanine-Gabapentin]
% of prodrug surviving intact [1]: 79%
oral bioavailability (F) as gabapentin ([2]; oral 25 mg/kg (or 25 mg-equivalents of gabapentin per kg) vs intravenous gabapentin): 53%
maximum plasma concentration (Cmax) of gabapentin ([2]; single oral dose 25 mg/kg (or 25 mg-equivalents of gabapentin per kg)): 6100 ng/mL
Cmax for prodrug (Cmax PD) in plasma [2]: 103000 ng/mL
AUC for gabapentin (AUC G) ([3]; oral): 29100 ± 3500 ng·h/mL
AUC for prodrug (AUC PD) ([3]; oral): 18900 ± 6500 ng·h/mL
Cmax for gabapentin (Cmax G) ([3]; oral): 3800 ± 1100 ng/mL
CmaxPH (Cmax for prodrug) ([3]; oral): 14900 ± 5300 ng/mL
oral bioavailability as gabapentin (F) [3]: 49.1±6.8%
area under the gabapentin plasma concentration vs. time curve relative to colonic administration of gabapentin itself [4]: > 3 fold
maximum plasma concentration of gabapentin relative to colonic administration of gabapentin itself [4]: > 3 fold
fraction of prodrug absorbed intact following oral administration [5]: about 60%
oral bioavailability of gabapentin provided by prodrug ([5]; oral dosing of prodrug): about 53%

N#Cc1cccc(C[C@H](N)C(=O)NCC2(CC(=O)O)CCCCC2)c1 [1al, L-3-Cyanophenylalanine-Gabapentin]
% of prodrug surviving intact [1]: 46%
Cmax for prodrug (Cmax PD) in plasma [2]: 600 ng/mL

N[C@@H](Cc1cc(F)cc(F)c1)C(=O)NCC1(CC(=O)O)CCCCC1 [1ao, L-3,5-Difluorophenylalanine-Gabapentin]
% of prodrug surviving intact [1]: 48%
Cmax for prodrug (Cmax PD) in plasma [2]: 2900 ng/mL

N#Cc1ccc(C[C@H](N)C(=O)NCC2(CC(=O)O)CCCCC2)cc1 [1am, L-4-Cyanophenylalanine-Gabapentin]
% of prodrug surviving intact [1]: 90%
Cmax for prodrug (Cmax PD) in plasma [2]: 22400 ng/mL

CC(C)C[C@H](CNC(=O)[C@@H](N)Cc1ccc(Br)cc1)CC(=O)O [compound 5, L-4-Bromophenylalanine-Pregabalin]
PEPT-specific current, % of Imax for Gly-Sar [6]: at least 5 % of Imax for Gly-Sar
PEPT-specific current, % of Imax for Gly-Sar [7]: at least 5 % of Imax for Gly-Sar

NCC1(CC(=O)O)CCCCC1 [gabapentin]
Cmax [2, 11]: 10300 ng/mL
half-life [2, 11]: 2.4 ± 0.5 h
increase in gabapentin exposure (as measured by AUC) for a 7.5-fold increase in dose [8]: 3.2 fold
AUC ([9]; 10 mg/kg): 32100 ± 10400 ng·h/mL
Cmax ([9]; 10 mg/kg): 3700 ± 1600 ng/mL
bioavailability ([9]; 10 mg/kg): 53.9 ± 17.3%
AUC ([9]; 75 mg/kg): 102000 ± 4900 ng·h/mL
Cmax ([9]; 75 mg/kg): 10800 ± 1300 ng/mL
bioavailability ([9]; 75 mg/kg): 22.9 ± 1.1%
oral bioavailability ([10]; dose of 300 mg): about 60%
oral bioavailability ([10]; dose of 1600 mg): about 35%

N[C@@H](CO)C(=O)NCC1(CC(=O)O)CCCCC1 [1ax, L-Serine-Gabapentin]
oral bioavailability as gabapentin (F) ([8]; 10 mg-eq/kg): 41.5±12.2%
oral bioavailability as gabapentin (F) ([8]; 75 mg-eq/kg): 28.1±1.1%
AUC for gabapentin (AUC G) ([8]; 10 mg-eq/kg): 24700 ± 7300 ng·h/mL
Cmax for gabapentin (Cmax G) ([8]; 10 mg-eq/kg): 3700 ± 1100 ng/mL
AUC for gabapentin (AUC G) ([8]; 75 mg-eq/kg): 125000 ± 5000 ng·h/mL
Cmax for gabapentin (Cmax G) ([8]; 75 mg-eq/kg): 14500 ± 1600 ng/mL
increase in gabapentin exposure (as measured by AUC) for a 7.5-fold increase in dose [8]: 5.1 fold
fraction of prodrug absorbed intact following oral administration [5]: 15-20%

N[C@@H](Cc1ccc(C(F)(F)F)cc1)C(=O)NCC1(CC(=O)O)CCCCC1 [1aa, L-4-Trifluoromethylphenylalanine-Gabapentin]
% of prodrug surviving intact [1]: 97%
Cmax for prodrug (Cmax PD) in plasma [2]: 30000 ng/mL

L-Tyrosine-(O-2-Bromobenzyloxycarbonyl)-Gabapentin [4d]
% of prodrug surviving intact [1]: 3%

N[C@@H](Cc1cccc2ccccc12)C(=O)NCC1(CC(=O)O)CCCCC1 [1l, L-1-Naphthylalanine-Gabapentin]
% of prodrug surviving intact [1]: 29%
Cmax for prodrug (Cmax PD) in plasma [2]: 500 ng/mL

NC(Cc1ccc(F)cc1F)C(=O)NCC1(CC(=O)O)CCCCC1 [1ap, D, L-2,4-Difluorophenylalanine-Gabapentin]
% of prodrug surviving intact [1]: 90%
Cmax for prodrug (Cmax PD) in plasma [2]: 278000 ng/mL
